Data on three molecules can be found in patent US9248089B2, “Peptide-based compounds as inhibitors of neurotransmitter secretion” (GRF (WUHAN) BIOTECHNOLOGY INC., priority 2011, dated 2016).

This data set concerns HEK293 cells. Briefly: HEK293 cell assay (evaluation of biological degradation, HPLC of supernatant). The class given is in vitro ADME, Human. Conditions: for Degradation after incubation with HEK293 cells: 37° C., 1.0×10^6 HEK293 cells; for Degradation after incubation with HEK293 cells / Degradation pattern/profile compared with another compound: HPLC condition D; for Degradation pattern/profile compared with another compound: incubation with HEK293 cells. Here is the method:
The Human Embryonic Kidney 293 (HEK293) cells may be cultured in suspension. After the HEK293 cells are collected, the cells may be washed 3 times with PBS buffer before the assay.
The stock solution of peptide-based compounds may be made by dissolving the compound in PBS buffers or in DMSO. Other solutions or solvents may be used to dissolve the peptide-based compounds for this assay.
2. Add 10 μL of the stock solution of the peptide-based compound prepared above so that the final concentration of the peptide-based compound is around 1/10th of that of the stock.
3. Incubate the resulting mixture at 37° C. for 3, 5, 10, 20, or 30 min.
4. Remove the cells by centrifugation.
5. Collect an aliquot of the supernatant solution (20 μL) and loaded it onto a reverse-phase HPLC column (3.9×150 Nova-Pak C18, Waters, Mass., USA) on an HPLC system (125 solvent module, System Gold, Beckman, Calif., USA). Peptide peaks may be detected at the wavelength of 220 nm (Diode Array Detector module 168, Beckman, Calif., USA).

Peptide text beside a SMILES is read from it.

As to `COC(=O)CC[C@H](NC(C)=O)C(=O)N[C@@H](CCC(=O)OC)C(=O)N[C@@H](CCSC)C(=O)N[C@@H](CCC(N)=O)C(=O)N[C@@H](CCCNC(=N)N)C(=O)N[C@@H](CCCNC(=N)N)C(N)=O` [Compound 1, Ac-Glu(OMe)-Glu(OMe)-Met-Gln-Arg-Arg-NH2] (Ac-E(OMe)E(OMe)MQRR-NH2), the “Degradation after incubation with HEK293 cells” value (from here on “Degradation after incubation”) is “degraded to Compound 2 and at least one new fragment” (3 min incubation); “fully degraded to at least one new fragment” (30 min incubation). The “Detectable Compound 2 as degradation intermediate” value (30 min incubation with HEK293 cells) is on record as “No Compound 2 was detectable”.
For `COC(=O)CC[C@H](NC(C)=O)C(=O)N[C@@H](CCC(=O)OC)C(=O)N[C@@H](CCSC)C(=O)N[C@@H](CCC(N)=O)C(=O)N[C@@H](CCCNC(=NC(=O)OC(C)(C)C)NC(=O)OC(C)(C)C)C(=O)N[C@@H](CCCNC(=NC(=O)OC(C)(C)C)NC(=O)OC(C)(C)C)C(N)=O` [Compound 3, Ac-Glu(OMe)-Glu(OMe)-Met-Gln-Arg(Boc)2-Arg(Boc)2-NH2], the “Degradation pattern/profile compared with another compound” value is listed as “degraded in the same pattern as Compound 2”. Also, the “Detectable Compound 2 as degradation intermediate” value (5 min incubation with HEK293 cells) is “did not produce detectable intermediacy of Compound 2”. Moreover, the “Degradation after incubation” value (5 min incubation) was “degraded to at least two fragments”. The “Degradation after incubation” value (10 min incubation) is reported as “completed degraded to the two fragments”.
Turning to “Ac-EEMQRR-NH2 [Compound 2, Ac-Glu-Glu-Met-Gln-Arg-Arg-NH2, reference compound]”, the “Degradation pattern/profile compared with another compound” value is “did not give the same degradation pattern as Compound 1”. Further, the “Degradation after incubation” value (10 min incubation) is on record as “degraded to at least two fragments”.
